“And” between values parts separate entries of the source, which are not always exact repeats. Equal entries are not always repeated. Structures can show the parent of a compound that is named as a salt.

Chain of 5-hydroxytryptamine receptor 4 (O70528 whole entry): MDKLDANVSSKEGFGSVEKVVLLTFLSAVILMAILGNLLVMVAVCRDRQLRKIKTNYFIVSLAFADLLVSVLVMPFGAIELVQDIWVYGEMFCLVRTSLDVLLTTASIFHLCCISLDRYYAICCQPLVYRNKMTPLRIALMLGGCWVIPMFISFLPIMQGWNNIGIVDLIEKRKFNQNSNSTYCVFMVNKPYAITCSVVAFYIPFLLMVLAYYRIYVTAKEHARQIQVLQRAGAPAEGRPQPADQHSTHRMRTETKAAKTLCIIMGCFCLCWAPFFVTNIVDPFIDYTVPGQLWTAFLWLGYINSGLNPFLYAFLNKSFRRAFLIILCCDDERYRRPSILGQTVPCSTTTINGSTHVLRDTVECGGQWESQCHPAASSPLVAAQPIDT

The assay addresses 5-hydroxytryptamine receptor 4 (Cavia porcellus, UniProt O70528).
For `COc1ccc2[nH]cc(CCN)c2c1` [tryptamine, 5-Methoxy], the Ki – broadly, a measure of affinity in units of concentration, obtained from inhibition or displacement – was 631 nM and 316 nM.
For the compound `COc1cc(N)c(Cl)cc1C(=O)NC1CN2CCC1CC2` (configuration not stated) [ZACOPRIDE,R], the Ki is 200 nM and 158 nM and 251 nM.
`Cn1cc(CCN)c2cc(O)ccc21` [5-HT,omega-N-Me]: affinity was put at a Ki of 1580 nM.
As for `COc1cc(N)c(Cl)cc1C(=O)NC1CCN2CCCC1C2` (configuration not stated) [NSC_3035240], the Ki is 126 nM and 100 nM.
Regarding `CCN(CC)CCNC(=O)c1cc(Cl)c(N)cc1OC` [4-amino-5-chloro-N-[2-(diethylamino)ethyl]-2-methoxy-benzamide;hydrochloride], the inhibitory constant (Ki) was 631 nM and 501 nM.
For `NCCc1c[nH]c2ccc(C(N)=O)cc12` [[3H]-5-carboxamidotryptamine], the inhibition constant Ki was 6310 nM.
The figure for `CCn1c(=O)n(C(=O)NC2CC3CCC(C2)N3C)c2ccccc21` (configuration not stated) [BIMU 1] is 15.8 nM; for `CC(C)n1c(=O)n(C(=O)NC2C[C@H]3CC[C@@H](C2)N3C)c2ccccc21` (some centres not stated) [BIMU 8] it is 25.1 nM and 12.6 nM; for `COc1cc(N)c(Cl)cc1C(=O)N[C@@H]1CN2CCC1CC2` [ZACOPRIDE,R] it is 1000 nM and 501 nM.
With `CCN(CC)CCOC(=O)c1cc(Cl)c(N)cc1OC` [SDZ-205557], the Ki was 7.94 nM and 6.3 nM.
In the case of `Cn1cc(C(=O)OCC2CCN(CCNS(C)(=O)=O)CC2)c2ccccc21` [GR 113808], the Ki is 0.25 nM and 0.31 nM.
The compound `CN1C2CCC1CC(OC(=O)c1c[nH]c3ccccc13)C2` (configuration not stated) registered a Ki of 63.1 nM.
